Laboratory results as given in ChEMBL document CHEMBL1201862, “PubChem BioAssay data set” (2004).
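Five concentrations, 48 hours, 96-well plates. Here, GI50 denotes the concentration required for 50% inhibition of growth.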 Activity calls are given as the source filed them. Rule as the data show it: active = GI50 up to about 1.1 µM and inactive = higher.

What was measured:
Assay in all cases: growth of human tumour cells (NCI), 48 h
SF-295 = tested on: SF-295
SK-MEL-5 = tested on: SK-MEL-5
MCF7 = tested on: MCF7
IGROV-1 = tested on: IGROV-1
SNB-75 = tested on: SNB-75
NCI/ADR-RES = tested on: NCI/ADR-RES
LOX IMVI = tested on: LOX IMVI
SF-268 = tested on: SF-268
TK-10 = tested on: TK-10
HCT-116 = tested on: HCT-116
UACC-257 = tested on: UACC-257
OVCAR-4 = tested on: OVCAR-4
K562 = tested on: K562
U-251 = tested on: U-251
HOP-62 = tested on: HOP-62
OVCAR-8 = tested on: OVCAR-8
Malme-3M = tested on: Malme-3M
UACC-62 = tested on: UACC-62
HOP-92 = tested on: HOP-92
BT-549 = tested on: BT-549
RPMI-8226 = tested on: RPMI-8226
PC-3 = tested on: PC-3
SW-620 = tested on: SW-620
SNB-19 = tested on: SNB-19
Hs-578T = tested on: Hs-578T
UO-31 = tested on: UO-31
MOLT-4 = tested on: MOLT-4
A549 = tested on: A549
A498 = tested on: A498
RXF 393 = tested on: RXF 393
SK-MEL-2 = tested on: SK-MEL-2
NCI-H522 = tested on: NCI-H522
MDA-N = tested on: MDA-N
EKVX = tested on: EKVX
MDA-MB-231 = tested on: MDA-MB-231
NCI-H23 = tested on: NCI-H23
T47D = tested on: T47D
OVCAR-5 = tested on: OVCAR-5
HT-29 = tested on: HT-29
CAKI-1 = tested on: CAKI-1
SK-MEL-28 = tested on: SK-MEL-28
M14 = tested on: M14
SK-OV-3 = tested on: SK-OV-3
SR = tested on: SR
HCC 2998 = tested on: HCC 2998
ACHN = tested on: ACHN
HCT-15 = tested on: HCT-15
786-0 = tested on: 786-0
KM12 = tested on: KM12
MDA-MB-435 = tested on: MDA-MB-435
CCRF-CEM = tested on: CCRF-CEM
OVCAR-3 = tested on: OVCAR-3
SF-539 = tested on: SF-539
NCI-H226 = tested on: NCI-H226
SN12C = tested on: SN12C
DU-145 = tested on: DU-145
NCI-H460 = tested on: NCI-H460
COLO 205 = tested on: COLO 205
HL-60 = tested on: HL-60

**Q.** How did the GI50 (SF-295) turn out when `N#Cc1cnc(N)nc1NCC1(CO)CC(CCc2ccccc2)C1` (configuration not stated) was run?
**A.** 18.5 µM (inactive)

**Q.** What about the GI50 (SK-MEL-5) of the same molecule?
**A.** 1.72 µM (inactive)

**Q.** What about the GI50 (MCF7) of the same molecule?
**A.** 49.1 µM (inactive)

**Q.** What about the GI50 (IGROV-1) of the same molecule?
**A.** 55 µM (inactive)

**Q.** What about the GI50 (SNB-75) of the same molecule?
**A.** 20.8 µM (inactive)

**Q.** And the GI50 (NCI/ADR-RES)?
**A.** 9.95 µM (inactive)

**Q.** And the GI50 (LOX IMVI)?
**A.** 5.26 µM (inactive)

**Q.** What about the GI50 (SF-268) of the same molecule?
**A.** > 55.6 µM (inactive)

**Q.** And the GI50 (TK-10)?
**A.** > 61.5 µM (inactive)

**Q.** What about the GI50 (HCT-116) of the same molecule?
**A.** 12 µM (inactive)

**Q.** What about the GI50 (UACC-257) of the same molecule?
**A.** 42.1 µM (inactive)

**Q.** What about the GI50 (OVCAR-4) of the same molecule?
**A.** > 100 µM (inactive)

**Q.** And the GI50 (K562)?
**A.** 2.51 µM (inactive)

**Q.** And the GI50 (U-251)?
**A.** > 59.2 µM (inactive)

**Q.** And the GI50 (HOP-62)?
**A.** 58.1 µM (inactive)

**Q.** And the GI50 (OVCAR-8)?
**A.** 47.3 µM (inactive)

**Q.** What about the GI50 (Malme-3M) of the same molecule?
**A.** > 100 µM (inactive)

**Q.** And the GI50 (UACC-62)?
**A.** > 100 µM (inactive)

**Q.** What about the GI50 (HOP-92) of the same molecule?
**A.** 19.7 µM (inactive)

**Q.** And the GI50 (BT-549)?
**A.** > 100 µM (inactive)

**Q.** And the GI50 (RPMI-8226)?
**A.** > 100 µM (inactive)

**Q.** And the GI50 (PC-3)?
**A.** > 91.2 µM (inactive)

**Q.** And the GI50 (SW-620)?
**A.** > 100 µM (inactive)

**Q.** And the GI50 (SNB-19)?
**A.** 55.3 µM (inactive)

**Q.** And the GI50 (Hs-578T)?
**A.** > 70.8 µM (inactive)

**Q.** And the GI50 (UO-31)?
**A.** 20.3 µM (inactive)

**Q.** And the GI50 (MOLT-4)?
**A.** 3.15 µM (inactive)

**Q.** And the GI50 (A549)?
**A.** 14.3 µM (inactive)

**Q.** What about the GI50 (A498) of the same molecule?
**A.** 29 µM (inactive)

**Q.** What about the GI50 (RXF 393) of the same molecule?
**A.** 49 µM (inactive)

**Q.** What about the GI50 (SK-MEL-2) of the same molecule?
**A.** > 100 µM (inactive)

**Q.** And the GI50 (NCI-H522)?
**A.** > 55.2 µM (inactive)

**Q.** And the GI50 (MDA-N)?
**A.** 29.9 µM (inactive)

**Q.** What about the GI50 (EKVX) of the same molecule?
**A.** 35.2 µM (inactive)

**Q.** And the GI50 (MDA-MB-231)?
**A.** 56.2 µM (inactive)

**Q.** What about the GI50 (NCI-H23) of the same molecule?
**A.** 63.4 µM (inactive)

**Q.** And the GI50 (T47D)?
**A.** 0.301 µM (active)

**Q.** And the GI50 (OVCAR-5)?
**A.** > 100 µM (inactive)

**Q.** And the GI50 (HT-29)?
**A.** > 100 µM (inactive)

**Q.** What about the GI50 (CAKI-1) of the same molecule?
**A.** > 100 µM (inactive)

**Q.** And the GI50 (SK-MEL-28)?
**A.** > 100 µM (inactive)

**Q.** What about the GI50 (M14) of the same molecule?
**A.** > 100 µM (inactive)

**Q.** And the GI50 (SK-OV-3)?
**A.** 27.1 µM (inactive)

**Q.** And the GI50 (SR)?
**A.** 20.1 µM (inactive)

**Q.** And the GI50 (HCC 2998)?
**A.** > 100 µM (inactive)

**Q.** What about the GI50 (ACHN) of the same molecule?
**A.** > 33.5 µM (inactive)

**Q.** And the GI50 (HCT-15)?
**A.** > 100 µM

**Q.** And the GI50 (786-0)?
**A.** > 85.5 µM (inactive)

**Q.** And the GI50 (KM12)?
**A.** > 85.5 µM (inactive)

**Q.** What about the GI50 (MDA-MB-435) of the same molecule?
**A.** 25.2 µM (inactive)

**Q.** And the GI50 (CCRF-CEM)?
**A.** > 100 µM (inactive)

**Q.** What about the GI50 (OVCAR-3) of the same molecule?
**A.** > 90.4 µM (inactive)

**Q.** And the GI50 (SF-539)?
**A.** > 100 µM (inactive)

**Q.** And the GI50 (NCI-H226)?
**A.** > 100 µM (inactive)

**Q.** What about the GI50 (SN12C) of the same molecule?
**A.** > 100 µM (inactive)

**Q.** What about the GI50 (DU-145) of the same molecule?
**A.** > 100 µM (inactive)

**Q.** What about the GI50 (NCI-H460) of the same molecule?
**A.** > 100 µM (inactive)

**Q.** And the GI50 (COLO 205)?
**A.** > 100 µM (inactive)

**Q.** What does the source list for `CO[C@@H]1O[C@H](C(=O)c2ccccc2)[C@H]2OC(C)(C)O[C@@H]12`?
**A.** GI50 (SF-295): > 100 µM (inactive); GI50 (SK-MEL-5): > 100 µM (inactive); GI50 (MCF7): > 100 µM (inactive); GI50 (IGROV-1): > 100 µM (inactive); GI50 (SNB-75): 96.8 µM (inactive); GI50 (NCI/ADR-RES): 74.1 µM (inactive); GI50 (LOX IMVI): > 100 µM (inactive); GI50 (SF-268): > 100 µM (inactive); GI50 (TK-10): > 100 µM (inactive); GI50 (HCT-116): 75.3 µM (inactive); GI50 (UACC-257): > 100 µM (inactive); GI50 (OVCAR-4): > 100 µM (inactive); GI50 (K562): > 100 µM (inactive); GI50 (U-251): > 100 µM (inactive); GI50 (HOP-62): > 100 µM (inactive); GI50 (OVCAR-8): > 100 µM (inactive); GI50 (UACC-62): > 100 µM (inactive); GI50 (HOP-92): > 100 µM (inactive); GI50 (BT-549): 68.9 µM (inactive); GI50 (RPMI-8226): > 100 µM (inactive); GI50 (PC-3): > 100 µM (inactive); GI50 (SW-620): 56.8 µM (inactive); GI50 (SNB-19): > 100 µM (inactive); GI50 (Hs-578T): 83 µM (inactive); GI50 (UO-31): > 100 µM (inactive); GI50 (MOLT-4): > 100 µM (inactive); GI50 (A498): > 100 µM (inactive); GI50 (RXF 393): > 100 µM (inactive); GI50 (SK-MEL-2): > 100 µM (inactive); GI50 (NCI-H522): > 100 µM (inactive); GI50 (MDA-N): > 100 µM (inactive); GI50 (EKVX): 86.5 µM (inactive); GI50 (MDA-MB-231): 79.3 µM (inactive); GI50 (NCI-H23): 94.8 µM (inactive); GI50 (T47D): > 100 µM (inactive); GI50 (OVCAR-5): > 100 µM (inactive); GI50 (CAKI-1): > 100 µM (inactive); GI50 (M14): > 100 µM (inactive); GI50 (SK-OV-3): > 100 µM (inactive); GI50 (SR): 57.8 µM (inactive); GI50 (HCC 2998): > 100 µM (inactive); GI50 (HCT-15): 55.2 µM; GI50 (786-0): > 100 µM (inactive); GI50 (KM12): > 100 µM (inactive); GI50 (MDA-MB-435): 85.3 µM (inactive); GI50 (CCRF-CEM): 49.7 µM (inactive); GI50 (OVCAR-3): > 100 µM (inactive); GI50 (SF-539): > 100 µM (inactive); GI50 (NCI-H226): > 100 µM (inactive); GI50 (HL-60): 21.1 µM (inactive); GI50 (SN12C): 89.7 µM (inactive); GI50 (DU-145): 54.5 µM (inactive); GI50 (NCI-H460): 38.1 µM (inactive); GI50 (COLO 205): > 100 µM (inactive)
